{
  "source": "ChEMBL document CHEMBL1201862",
  "about": "“PubChem BioAssay data set” (2004)",
  "key": {"[1]": {"experiment": "reduced cellular PGC1a acetyl-lysine signal – cell-based, cherry-picked samples, dose response (AID 720514);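 note: potency may reflect raised or lowered acetylation signal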", "assay_type": "functional"}, "[2]": {"target": "Glucose-6-phosphate 1-dehydrogenase (Homo sapiens, UniProt P11413)", "sequence (P11413 whole entry)": "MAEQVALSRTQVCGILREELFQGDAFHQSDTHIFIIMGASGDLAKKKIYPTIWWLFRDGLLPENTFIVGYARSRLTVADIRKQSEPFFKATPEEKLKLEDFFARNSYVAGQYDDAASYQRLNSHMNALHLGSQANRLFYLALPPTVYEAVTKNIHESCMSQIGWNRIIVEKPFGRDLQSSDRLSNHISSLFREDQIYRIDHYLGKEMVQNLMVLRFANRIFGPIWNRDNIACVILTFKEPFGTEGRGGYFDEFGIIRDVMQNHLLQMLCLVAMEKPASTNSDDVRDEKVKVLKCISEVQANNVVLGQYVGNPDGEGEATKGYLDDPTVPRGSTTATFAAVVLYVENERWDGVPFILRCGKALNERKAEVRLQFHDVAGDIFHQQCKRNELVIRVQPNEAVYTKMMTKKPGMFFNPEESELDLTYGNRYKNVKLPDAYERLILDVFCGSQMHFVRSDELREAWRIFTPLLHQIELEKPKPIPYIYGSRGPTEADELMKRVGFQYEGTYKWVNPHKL", "experiment": "inhibition of Homo sapiens G6PD, dose series – biochemical, fluorescence, selectivity assay for P. falciparum G6PD inhibitor project, dose response (AID 504792)", "assay_type": "functional"}, "[3]": {"system": "CHO", "experiment": "CHO cell viability loss, potency – luminescence, cytotoxicity control for TLR9-MyD88 binding inhibitor project, dose response (AID 588339);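 note: CHO cells stably coexpressing TLR9 and MyD88 fusions from primary screen; compound exposure lasted 48 hours before viability readout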", "assay_type": "functional, cell-based, hamster", "conditions": "Cricetulus griseus"}, "[4]": {"target": "Beta Lactamase (Pseudomonas aeruginosa, UniProt Q932Y6)", "sequence (Q932Y6 whole entry)": "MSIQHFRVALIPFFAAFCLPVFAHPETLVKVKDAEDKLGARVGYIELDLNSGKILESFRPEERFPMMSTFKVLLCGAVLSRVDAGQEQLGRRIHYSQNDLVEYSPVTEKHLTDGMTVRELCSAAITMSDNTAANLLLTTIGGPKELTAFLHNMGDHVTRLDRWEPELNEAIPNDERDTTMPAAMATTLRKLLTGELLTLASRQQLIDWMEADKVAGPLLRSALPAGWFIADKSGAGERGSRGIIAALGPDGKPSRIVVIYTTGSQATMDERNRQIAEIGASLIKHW", "experiment": "BLA reporter interference, concentration series – BLA reporter cells, FRET fluorescence, artefact control for TLR9-MyD88 binding inhibitor project, dose response (AID 588341);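 note: cell based assay in CHO-K1 cells stably expressing beta-lactamase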", "assay_type": "cell-based"}, "[5]": {"experiment": "cells", "assay_type": "functional, cell-based"}, "[6]": {"target": "T1, Nuclear receptor subfamily 0 group B member 1 (Homo sapiens, UniProt P51843)", "T1 sequence (P51843 whole entry)": "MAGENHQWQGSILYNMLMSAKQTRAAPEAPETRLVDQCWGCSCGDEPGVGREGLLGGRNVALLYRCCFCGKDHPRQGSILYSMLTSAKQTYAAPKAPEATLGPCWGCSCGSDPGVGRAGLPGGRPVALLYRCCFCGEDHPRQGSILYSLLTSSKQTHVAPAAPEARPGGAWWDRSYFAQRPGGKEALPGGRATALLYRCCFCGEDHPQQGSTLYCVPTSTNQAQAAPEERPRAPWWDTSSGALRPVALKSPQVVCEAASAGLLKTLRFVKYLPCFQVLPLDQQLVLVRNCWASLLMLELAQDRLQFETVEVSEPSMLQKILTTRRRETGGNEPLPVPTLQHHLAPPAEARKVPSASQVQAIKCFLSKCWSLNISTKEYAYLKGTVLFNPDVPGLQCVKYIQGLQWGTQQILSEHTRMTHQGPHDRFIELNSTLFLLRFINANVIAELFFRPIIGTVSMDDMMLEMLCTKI", "assay_type": "functional, cell-based"}, "[7]": {"target": "T2, Corticotropin-releasing factor receptor 2/Corticotropin-releasing factor-binding protein (Homo sapiens, UniProt P24387+Q13324)", "T2 sequence (Q13324 whole entry)": "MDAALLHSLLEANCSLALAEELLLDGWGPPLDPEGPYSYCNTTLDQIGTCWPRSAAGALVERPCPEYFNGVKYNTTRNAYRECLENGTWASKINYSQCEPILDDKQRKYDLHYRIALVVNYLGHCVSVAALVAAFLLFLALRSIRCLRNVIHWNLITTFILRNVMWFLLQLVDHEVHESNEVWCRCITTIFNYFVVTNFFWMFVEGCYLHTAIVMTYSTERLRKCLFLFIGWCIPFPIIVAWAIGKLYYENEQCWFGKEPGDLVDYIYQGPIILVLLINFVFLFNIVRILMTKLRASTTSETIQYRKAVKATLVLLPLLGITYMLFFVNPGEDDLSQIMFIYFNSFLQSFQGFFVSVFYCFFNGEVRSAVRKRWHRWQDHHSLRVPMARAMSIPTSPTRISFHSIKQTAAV", "T2 sequence (P24387 whole entry)": "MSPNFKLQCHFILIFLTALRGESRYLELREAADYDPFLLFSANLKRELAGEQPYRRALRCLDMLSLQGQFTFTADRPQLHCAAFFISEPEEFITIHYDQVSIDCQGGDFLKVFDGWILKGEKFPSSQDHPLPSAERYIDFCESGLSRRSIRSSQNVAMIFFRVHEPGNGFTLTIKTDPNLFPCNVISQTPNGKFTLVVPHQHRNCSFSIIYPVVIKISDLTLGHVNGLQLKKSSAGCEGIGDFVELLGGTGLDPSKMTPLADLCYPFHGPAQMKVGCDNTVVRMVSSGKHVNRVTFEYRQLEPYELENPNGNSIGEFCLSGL", "experiment": "Dose Response confirmation of uHTS hits for small molecule antagonists of the CRF-binding protein and CRF-R2 receptor complex.", "assay_type": "functional", "conditions": "read-out: IC50_Mean"}, "[8]": {"target": "T2, Corticotropin-releasing factor receptor 2/Corticotropin-releasing factor-binding protein", "experiment": "activators of CRF receptor 2 with binding protein – uHTS hits, confirmation (AID 602473)", "assay_type": "functional", "conditions": "read-out: EC50_Mean"}, "[9]": {"experiment": "blockers of CRF-binding protein–CRF-R2 complex – cell-based, uHTS hits, 384-well, dose response (AID 651639)", "assay_type": "functional, Homo sapiens", "conditions": "read-out: IC50_Mean"}, "[10]": {"experiment": "HepG2 cell cytotoxicity, dose response, cytotoxicity control for non-replicating M. tuberculosis project (AID 489018)", "assay_type": "functional", "conditions": "Mycobacterium tuberculosis"}, "[11]": {"experiment": "cells", "assay_type": "functional"}, "[12]": {"target": "T3, Oxysterols receptor LXR-beta (Homo sapiens, UniProt P55055)", "T3 sequence (P55055 whole entry)": "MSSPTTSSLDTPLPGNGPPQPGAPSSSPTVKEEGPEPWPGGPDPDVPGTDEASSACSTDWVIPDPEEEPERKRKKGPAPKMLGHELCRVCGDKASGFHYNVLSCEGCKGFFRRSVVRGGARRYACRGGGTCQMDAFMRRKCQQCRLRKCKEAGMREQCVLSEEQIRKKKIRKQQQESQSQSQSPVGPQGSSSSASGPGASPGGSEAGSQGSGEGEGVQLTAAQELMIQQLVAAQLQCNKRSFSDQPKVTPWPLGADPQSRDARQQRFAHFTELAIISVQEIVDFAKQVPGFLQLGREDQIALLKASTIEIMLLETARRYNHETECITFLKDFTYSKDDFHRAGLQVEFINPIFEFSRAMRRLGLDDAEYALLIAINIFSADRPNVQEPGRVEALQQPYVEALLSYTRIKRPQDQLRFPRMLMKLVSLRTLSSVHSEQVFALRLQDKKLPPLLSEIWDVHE", "assay_type": "functional, cell-based"}, "[13]": {"experiment": "cells"}, "[14]": {"experiment": "general mammalian cell viability loss – inhibitor set, cherry-pick, set 2, cytotoxicity control for miR-122 modulator project, dose response (AID 720697)", "assay_type": "functional, cell-based"}, "[15]": {"target": "Cytochrome P450 2D6 (Homo sapiens, UniProt P10635)", "sequence (P10635 whole entry)": "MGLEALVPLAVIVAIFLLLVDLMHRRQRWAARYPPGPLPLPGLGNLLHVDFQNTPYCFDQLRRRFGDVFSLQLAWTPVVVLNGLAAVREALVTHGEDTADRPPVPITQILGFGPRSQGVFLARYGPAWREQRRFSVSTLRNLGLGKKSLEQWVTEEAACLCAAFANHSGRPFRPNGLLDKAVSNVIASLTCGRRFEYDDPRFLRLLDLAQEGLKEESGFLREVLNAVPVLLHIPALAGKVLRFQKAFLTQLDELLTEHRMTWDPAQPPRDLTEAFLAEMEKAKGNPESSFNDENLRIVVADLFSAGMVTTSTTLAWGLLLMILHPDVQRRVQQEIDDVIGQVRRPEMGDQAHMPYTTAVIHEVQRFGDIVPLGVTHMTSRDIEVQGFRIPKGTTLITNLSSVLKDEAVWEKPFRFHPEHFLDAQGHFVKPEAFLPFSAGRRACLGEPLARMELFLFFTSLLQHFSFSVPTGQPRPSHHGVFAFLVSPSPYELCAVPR"}, "[16]": {"target": "Cytochrome P450 3A4 (Homo sapiens, UniProt P08684)", "sequence (P08684 whole entry)": "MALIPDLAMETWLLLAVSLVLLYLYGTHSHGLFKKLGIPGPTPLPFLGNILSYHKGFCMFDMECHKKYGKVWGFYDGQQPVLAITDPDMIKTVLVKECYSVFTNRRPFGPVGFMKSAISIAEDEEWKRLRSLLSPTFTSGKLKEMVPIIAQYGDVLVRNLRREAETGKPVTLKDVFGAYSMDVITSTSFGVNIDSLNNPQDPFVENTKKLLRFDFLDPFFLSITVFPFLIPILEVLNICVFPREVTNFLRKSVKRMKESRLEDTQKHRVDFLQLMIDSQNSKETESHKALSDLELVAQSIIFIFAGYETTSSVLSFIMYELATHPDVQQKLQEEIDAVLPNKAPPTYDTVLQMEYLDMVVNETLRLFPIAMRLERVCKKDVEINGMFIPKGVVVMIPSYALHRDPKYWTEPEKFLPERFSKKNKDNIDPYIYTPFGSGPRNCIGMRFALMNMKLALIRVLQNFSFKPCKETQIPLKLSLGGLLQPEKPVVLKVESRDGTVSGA"}, "[17]": {"target": "Cytochrome P450 2C9 (Homo sapiens, UniProt P11712)", "sequence (P11712 whole entry)": "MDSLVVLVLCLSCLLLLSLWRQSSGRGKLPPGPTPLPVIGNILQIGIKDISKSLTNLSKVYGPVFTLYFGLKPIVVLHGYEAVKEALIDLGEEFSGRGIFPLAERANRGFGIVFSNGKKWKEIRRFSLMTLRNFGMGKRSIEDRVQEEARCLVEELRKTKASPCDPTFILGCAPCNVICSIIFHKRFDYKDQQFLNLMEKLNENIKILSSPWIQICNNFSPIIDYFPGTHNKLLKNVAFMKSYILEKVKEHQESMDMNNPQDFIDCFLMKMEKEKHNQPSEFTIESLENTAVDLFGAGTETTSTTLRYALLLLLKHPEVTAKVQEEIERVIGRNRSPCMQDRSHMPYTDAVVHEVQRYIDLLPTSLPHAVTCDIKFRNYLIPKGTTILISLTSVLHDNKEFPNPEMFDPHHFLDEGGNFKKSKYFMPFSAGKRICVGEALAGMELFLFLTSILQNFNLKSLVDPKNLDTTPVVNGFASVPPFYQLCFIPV"}},
  "note": "Calls of active or inactive are those of the source.",
  "data": [
    {"smiles": "COc1ccccc1C1c2c(C)nn(-c3ccccc3)c2NC(=O)C1NC(=O)c1ccccc1", "note": "(configuration not stated)", "values": [
      {"measurement": "AC50", "setting": "[1]", "value": "23.5 µM (active)"}
    ]},
    {"smiles": "N#Cc1c(C#N)c(SSc2c(C#N)c(C#N)c(N)n2-c2ccccc2)n(-c2ccccc2)c1N", "values": [
      {"measurement": "IC50", "setting": "[2]", "value": "> 80 µM (inactive)"}
    ]},
    {"smiles": "O=C1C=CC(=O)N1c1ccc2c(c1)C(NC(=O)C(F)(F)F)c1ccccc1-2", "note": "(configuration not stated)", "values": [
      {"measurement": "IC50", "setting": "[2]", "value": "> 80 µM (inactive)"},
      {"measurement": "IC50", "setting": "[3]", "value": "1.91 µM (active)"},
      {"measurement": "IC50", "setting": "[4]", "value": "14.5 µM (inactive)"}
    ]},
    {"smiles": "O=C1C(=Cc2ccccc2Cl)CCc2ccccc21", "values": [
      {"measurement": "IC50", "setting": "[5]", "value": "> 67.5 µM (inactive)"},
      {"measurement": "IC50", "setting": "[6]", "value": "> 67.5 µM (inactive)"}
    ]},
    {"smiles": "Clc1ccc(Cl)c(Oc2ccc(Oc3nc(Cl)ccc3Cl)cc2)n1", "values": [
      {"measurement": "IC50", "setting": "[7]", "value": "0.727 µM (active)"},
      {"measurement": "EC50", "setting": "[8]", "value": "> 53 µM (inactive)"},
      {"measurement": "IC50", "setting": "[9]", "value": "11.4 µM (active)"}
    ]},
    {"smiles": "Cc1ccc(Cc2c(-c3ccc(Br)cc3)nc3cc(C)ccn23)cc1", "values": [
      {"measurement": "IC50", "setting": "[5]", "value": "> 67.5 µM (inactive)"},
      {"measurement": "IC50", "setting": "[6]", "value": "> 67.5 µM (inactive)"}
    ]},
    {"smiles": "C=C1[C@@H](C)C2[C@H](Cc3ccccc3)NC(=O)[C@]23[C@H](OC(C)=O)/C=C/[C@@](C)(O)C(=O)[C@@H](C)C/C=C/[C@H]3[C@@H]1O", "note": "(some centres not stated)", "values": [
      {"measurement": "IC50", "setting": "[5]", "value": "> 67.5 µM (inactive)"},
      {"measurement": "IC50", "setting": "[6]", "value": "14 µM (inactive)"}
    ]},
    {"smiles": "Cc1ccc(/N=N/c2c(C)[nH]n(C(N)=S)c2=O)cc1C", "values": [
      {"measurement": "CC50", "setting": "[10]", "value": "> 20 µM (active)"},
      {"measurement": "IC50", "setting": "[11]", "value": "10.1 µM (active)"},
      {"measurement": "EC50", "setting": "[12]", "value": "> 67.5 µM (inactive)"},
      {"measurement": "EC50", "setting": "[13]", "value": "> 67.5 µM (inactive)"}
    ]},
    {"smiles": "Cc1[nH]n(C(N)=S)c(=O)c1/N=N/c1ccc(Br)cc1", "values": [
      {"measurement": "EC50", "setting": "[12]", "value": "> 67.5 µM (inactive)"},
      {"measurement": "EC50", "setting": "[13]", "value": "> 67.5 µM (inactive)"}
    ]},
    {"smiles": "CO[C@@H]1CN(C)C(=O)c2cc(NC(=O)NC(C)C)ccc2OC[C@H](C)N(Cc2cncnc2)C[C@H]1C", "values": [
      {"measurement": "AC50", "setting": "[14]", "value": "0.472 µM (active)"}
    ]},
    {"smiles": "COc1ccccc1C#Cc1ccc2c(c1)O[C@@H](CN(C)Cc1cccnc1)[C@H](C)CN([C@@H](C)CO)S2(=O)=O", "values": [
      {"measurement": "AC50", "setting": "[1]", "value": "2.25 µM (active)"}
    ]},
    {"smiles": "C/C(=N/NC(=O)c1ccc2c(c1)OCO2)c1ccc(NC(=O)c2ccc(F)cc2)cc1", "values": [
      {"measurement": "IC50", "setting": "[5]", "value": "> 67.5 µM (inactive)"},
      {"measurement": "IC50", "setting": "[6]", "value": "> 67.5 µM (inactive)"}
    ]},
    {"smiles": "FC(F)(F)c1cccc(NC(=S)Nc2cccc(Cl)c2)c1", "values": [
      {"measurement": "AC50", "setting": "[15]", "value": "28.2 µM (inconclusive)"},
      {"measurement": "AC50", "setting": "[16]", "value": "25.1 µM (inconclusive)"},
      {"measurement": "AC50", "setting": "[17]", "value": "inconclusive"}
    ]}
  ]
}
